Test results: patent US20250129027A1 (APOGEE PHARMACEUTICALS, INC., priority 2023, published 2025)

Experiments:
human recombinant FAAH = human recombinant FAAH (Homo sapiens (Human), UniProt O00519); assay: In vitro inhibition of FAAH activity (fluorescent inhibitor screening kit, AMC arachidonoyl amide); format: biochemical; settings: human recombinant FAAH; read-out: Inhibition on FAAH activity (IC50)
In short: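 Fluorogenic kit assay: AMC arachidonoyl amide is cleaved by human recombinant FAAH, read at 340-360/450-465 nm. Percent inhibition versus non-treated control; IC50 values derived from multiple compound concentrations where tested.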

human recombinant MAGL = human recombinant MAGL (Homo sapiens (Human), UniProt Q99685); assay: In vitro inhibition of MAGL activity (inhibitor screening kit, 4-nitrophenylacetate); format: biochemical; settings: human recombinant MAGL
Sequence of human recombinant MAGL (Q99685 whole entry): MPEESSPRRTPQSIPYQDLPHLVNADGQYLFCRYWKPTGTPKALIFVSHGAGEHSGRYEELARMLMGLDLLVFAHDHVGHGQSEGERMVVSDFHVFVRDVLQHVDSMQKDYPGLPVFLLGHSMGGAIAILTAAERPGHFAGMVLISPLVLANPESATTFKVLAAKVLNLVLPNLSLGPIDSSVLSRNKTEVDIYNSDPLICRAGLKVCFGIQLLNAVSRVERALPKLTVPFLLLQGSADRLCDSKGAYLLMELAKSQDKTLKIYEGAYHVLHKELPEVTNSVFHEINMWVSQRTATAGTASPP
In short: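 Colorimetric kit assay: recombinant human MAGL hydrolyses 4-nitrophenylacetate to 4-nitrophenol, read by absorbance at 405-412 nm. Inhibition given as percentage of signal in treated versus untreated MAGL control.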

Sequence of human recombinant FAAH (O00519 whole entry): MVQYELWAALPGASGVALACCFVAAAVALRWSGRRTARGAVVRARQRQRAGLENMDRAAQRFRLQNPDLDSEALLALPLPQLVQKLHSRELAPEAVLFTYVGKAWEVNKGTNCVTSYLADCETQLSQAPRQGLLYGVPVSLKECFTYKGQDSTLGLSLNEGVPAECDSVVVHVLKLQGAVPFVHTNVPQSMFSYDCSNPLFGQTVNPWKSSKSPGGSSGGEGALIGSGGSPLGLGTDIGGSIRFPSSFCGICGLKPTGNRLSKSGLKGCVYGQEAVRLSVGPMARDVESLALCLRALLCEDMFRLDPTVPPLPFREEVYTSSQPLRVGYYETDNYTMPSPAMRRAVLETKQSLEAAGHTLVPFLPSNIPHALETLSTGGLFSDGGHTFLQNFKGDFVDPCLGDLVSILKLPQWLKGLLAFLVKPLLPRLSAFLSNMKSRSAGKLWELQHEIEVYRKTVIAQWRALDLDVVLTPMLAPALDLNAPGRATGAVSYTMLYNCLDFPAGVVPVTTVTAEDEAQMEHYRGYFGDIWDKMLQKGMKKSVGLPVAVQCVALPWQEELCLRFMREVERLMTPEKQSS

| Structure (SMILES) | IC50 (human recombinant FAAH) | IC50 (human recombinant MAGL) |
| --- | --- | --- |
| Cc1cc(OC(=O)NC2CCC(C)CC2)cc(-c2cncc(-c3ncco3)c2)c1 (centres unmarked) [Example 102, 3-methyl-5-(5-(oxazol-2-yl)pyridin-3-yl)phenyl (4-methylcyclohexyl)carbamate] | > 1000 nM | > 10000 nM |
| Cc1cc(OC(=O)NC2CCCCCC2)cc(-c2cncc(-c3ncco3)c2)c1 [Example 103, 3-methyl-5-(5-(oxazol-2-yl)pyridin-3-yl)phenyl cycloheptylcarbamate] | 100 to 1000 nM | ~10000 nM |
| Cc1cc(OC(=O)NC2CCCCCCC2)cc(-c2cncc(-c3ncco3)c2)c1 [Example 104, 3-methyl-5-(5-(oxazol-2-yl)pyridin-3-yl)phenyl cyclooctylcarbamate] | 100 to 1000 nM | ~10000 nM |
| CCCCCCCCNC(=O)Oc1cccc(-c2cncc(-c3ccno3)c2)c1 [Example 105, 3-(5-(isoxazol-5-yl)pyridin-3-yl)phenyl octylcarbamate] | 1 to 10 nM | > 10000 nM |
| O=C(NC1CCCC1)Oc1cccc(-c2cncc(-c3ccno3)c2)c1 [Example 106, 3-(5-(isoxazol-5-yl)pyridin-3-yl)phenyl cyclopentylcarbamate] | 10 to 100 nM | > 10000 nM |
| O=C(NC1CCCCC1)Oc1cccc(-c2cncc(-c3ccno3)c2)c1 [Example 107, 3-(5-(isoxazol-5-yl)pyridin-3-yl)phenyl cyclohexylcarbamate] | 10 to 100 nM | > 10000 nM |
| O=C(NC1CCCCCC1)Oc1cccc(-c2cncc(-c3ccno3)c2)c1 [Example 108, 3-(5-(isoxazol-5-yl)pyridin-3-yl)phenyl cycloheptylcarbamate] | 10 to 100 nM | > 1000 nM |
| CCCCCCCCNC(=O)Oc1ccc(OC)c(-c2cncc(-c3ccno3)c2)c1 [Example 109, 3-(5-(isoxazol-5-yl)pyridin-3-yl)-4-methoxyphenyl octylcarbamate] | 1 to 10 nM | ~10000 nM |
| COc1ccc(OC(=O)NCC2CCCCC2)cc1-c1cncc(-c2ccno2)c1 [Example 110, 3-(5-(isoxazol-5-yl)pyridin-3-yl)-4-methoxyphenyl (cyclohexylmethyl)carbamate] | 10 to 100 nM | ~10000 nM |
| COc1ccc(OC(=O)NCc2ccccc2)cc1-c1cncc(-c2ccno2)c1 [Example 111, 3-(5-(isoxazol-5-yl)pyridin-3-yl)-4-methoxyphenyl benzylcarbamate] | 100 to 1000 nM | > 10000 nM |
| COc1ccc(OC(=O)NC2CCCC2)cc1-c1cncc(-c2ccno2)c1 [Example 112, 3-(5-(isoxazol-5-yl)pyridin-3-yl)-4-methoxyphenyl cyclopentylcarbamate] | ~100 nM | > 10000 nM |
| COc1ccc(OC(=O)NC2CCCCC2)cc1-c1cncc(-c2ccno2)c1 [Example 113, 3-(5-(isoxazol-5-yl)pyridin-3-yl)-4-methoxyphenyl cyclohexylcarbamate] | ~100 nM | > 10000 nM |
| CCCCCCCCNC(=O)Oc1cccc(-c2cncc(-c3nccs3)c2)c1 [Example 115] | 1 to 10 nM | ~10000 nM |
| O=C(NCC1CCCCC1)Oc1cccc(-c2cncc(-c3nccs3)c2)c1 [Example 116, 3-(5-(thiazol-2-yl)pyridin-3-yl)phenyl (cyclohexylmethyl)carbamate] | 10 to 100 nM | ~10000 nM |
| O=C(NCc1ccccc1)Oc1cccc(-c2cncc(-c3nccs3)c2)c1 [Example 117, 3-(5-(thiazol-2-yl)pyridin-3-yl)phenyl benzylcarbamate] | 100 to 1000 nM | > 10000 nM |
| O=C(NC1CCCC1)Oc1cccc(-c2cncc(-c3nccs3)c2)c1 [Example 118, 3-(5-(thiazol-2-yl)pyridin-3-yl)phenyl cyclopentylcarbamate] | ~100 nM | > 10000 nM |
| O=C(NC1CCCCC1)Oc1cccc(-c2cncc(-c3nccs3)c2)c1 [Example 119, 3-(5-(thiazol-2-yl)pyridin-3-yl)phenyl cyclohexylcarbamate] | 10 to 100 nM | > 10000 nM |
| O=C(NC1CCCCCC1)Oc1cccc(-c2cncc(-c3nccs3)c2)c1 [Example 120, 3-(5-(thiazol-2-yl)pyridin-3-yl)phenyl cycloheptylcarbamate] | 10 to 100 nM | ~10000 nM |
| CCCCCCCCNC(=O)Oc1ccc(OC)c(-c2cncc(-c3nccs3)c2)c1 [Example 121, 4-methoxy-3-(5-(thiazol-2-yl)pyridin-3-yl)phenyl octylcarbamate] | 10 to 100 nM | ~10000 nM |
| COc1ccc(OC(=O)NCC2CCCCC2)cc1-c1cncc(-c2nccs2)c1 [Example 122, 4-methoxy-3-(5-(thiazol-2-yl)pyridin-3-yl)phenyl (cyclohexylmethyl)carbamate] | 100 to 1000 nM | ~10000 nM |

| Structure (SMILES) | IC50 (human recombinant FAAH) | IC50 (human recombinant MAGL) |
| --- | --- | --- |
| COc1ccc(OC(=O)NCc2ccccc2)cc1-c1cncc(-c2nccs2)c1 [Example 123, 4-methoxy-3-(5-(thiazol-2-yl)pyridin-3-yl)phenyl benzylcarbamate] | ~1000 nM | > 10000 nM |
| COc1ccc(OC(=O)NC2CCCC2)cc1-c1cncc(-c2nccs2)c1 [Example 124, 4-methoxy-3-(5-(thiazol-2-yl)pyridin-3-yl)phenyl cyclopentylcarbamate] | 100 to 1000 nM | > 10000 nM |
| COc1ccc(OC(=O)NC2CCCCC2)cc1-c1cncc(-c2nccs2)c1 [Example 125, 4-methoxy-3-(5-(thiazol-2-yl)pyridin-3-yl)phenyl cyclohexylcarbamate] | 100 to 1000 nM | > 10000 nM |
| COc1ccc(OC(=O)NC2CCCCCC2)cc1-c1cncc(-c2nccs2)c1 [Example 126, 4-methoxy-3-(5-(thiazol-2-yl)pyridin-3-yl)phenyl cycloheptylcarbamate] | 100 to 1000 nM | > 10000 nM |
| O=C(NCC1CCCCC1)Oc1cccc(-c2cncc(-c3nnco3)c2)c1 [Example 134, 3-(5-(1,3,4-oxadiazol-2-yl)pyridin-3-yl)phenyl (cyclohexylmethyl)carbamate] | 10 to 20 nM | > 10000 nM |
| O=C(NCc1ccccc1)Oc1cccc(-c2cncc(-c3nnco3)c2)c1 [Example 135, 3-(5-(1,3,4-oxadiazol-2-yl)pyridin-3-yl)phenyl benzylcarbamate] | > 100 nM | > 50000 nM |
| O=C(NCCCc1ccccc1)Oc1cccc(-c2cncc(-c3nnco3)c2)c1 [Example 136, 3-(5-(1,3,4-oxadiazol-2-yl)pyridine-3-yl)phenyl (3-phenylpropyl)carbamate] | 10 to 100 nM | 10000 to 50000 nM |
| O=C(NC1CCCCCC1)Oc1cccc(-c2cncc(-c3nnco3)c2)c1 [Example 137, 3-(5-(1,3,4-oxadiazol-2-yl)pyridin-3-yl)phenyl cycloheptylcarbamate] | 10 to 20 nM | > 10000 nM |
| O=C(NC1CCCC1)Oc1cccc(-c2cncc(-c3nnco3)c2)c1 [Example 138, 3-(5-(1,3,4-oxadiazol-2-yl)pyridin-3-yl)phenyl cyclopentylcarbamate] | 10 to 100 nM | > 50000 nM |
| O=C(NC1CCCCC1)Oc1cccc(-c2cncc(-c3nnco3)c2)c1 [Example 139, 3-(5-(1,3,4-oxadiazol-2-yl)pyridin-3-yl)phenyl cyclohexylcarbamate] | 10 to 100 nM | > 50000 nM |
| O=C(Nc1cccc2ccccc12)Oc1cccc(-c2cncc(-c3nnco3)c2)c1 [Example 140, 3-(5-(1,3,4-oxadiazol-2-yl)pyridin-3-yl)phenyl naphthalen-1-ylcarbamate] | > 100 nM | > 50000 nM |
| O=C(Oc1cccc(-c2cncc(-c3nnco3)c2)c1)N1CCCCC1 [Example 141, 3-(5-(1,3,4-oxadiazol-2-yl)pyridin-3-yl)phenyl piperidine-1-carboxylate] | ~1000 nM | > 10000 nM |
| CN(C(=O)Oc1cccc(-c2cncc(-c3nnco3)c2)c1)C1CCCCC1 [Example 142, 3-(5-(1,3,4-oxadiazol-2-yl)pyridin-3-yl)phenyl cyclohexyl(methyl)carbamate] | 1000 to 10000 nM | > 10000 nM |
| CC1CCCCN1C(=O)Oc1cccc(-c2cncc(-c3nnco3)c2)c1 (centres unmarked) [Example 143, 3-(5-(1,3,4-oxadiazol-2-yl)pyridin-3-yl)phenyl 2-methylpiperidine-1-carboxylate] | ~10000 nM | > 10000 nM |
| O=C(Oc1cccc(-c2cncc(-c3nnco3)c2)c1)N1CCCCCC1 [Example 145, 3-(5-(1,3,4-oxadiazol-2-yl)pyridin-3-yl)phenyl azepane-1-carboxylate] | > 1000 nM | > 10000 nM |
| O=C(NC1CC2(CCC2)C1)Oc1cccc(-c2cncc(-c3nnco3)c2)c1 [Example 147, 3-(5-(1,3,4-oxadiazol-2-yl)pyridin-3-yl)phenyl spiro[3.3]heptan-2-ylcarbamate] | 10 to 100 nM | > 10000 nM |
| O=C(Oc1cccc(-c2cncc(-c3nnco3)c2)c1)N1CC2CC2C1 (centres unmarked) [Example 148, 3-(5-(1,3,4-oxadiazol-2-yl)pyridin-3-yl)phenyl 3-azabicyclo[3.1.0]hexane-3-carboxylate] | > 1000 nM | > 10000 nM |
| O=C(Oc1cccc(-c2cncc(-c3nnco3)c2)c1)N1CC2CCCC2C1 (centres unmarked) [Example 149, 3-(5-(1,3,4-oxadiazol-2-yl)pyridin-3-yl)phenyl hexahydrocyclopenta[c]pyrrole-2(1H)-carboxylate] | 10 to 100 nM | 1000 to 10000 nM |
| O=C(Oc1cccc(-c2cncc(-c3nnco3)c2)c1)N1C2CCCC1CC2 [Example 150, 3-(5-(1,3,4-oxadiazol-2-yl)pyridin-3-yl)phenyl 8-azabicyclo[3.2.1]octane-8-carboxylate] | > 1000 nM | > 10000 nM |
| O=C(Oc1cccc(-c2cncc(-c3nnco3)c2)c1)N1CCOCC1 [Example 151, 3-(5-(1,3,4-oxadiazol-2-yl)pyridin-3-yl)phenyl morpholine-4-carboxylate] | 1000 to 10000 nM | > 10000 nM |
